We go through five compounds from US5691344A, “Vasoconstrictive substituted dihydropyranopyridines” (Janssen Pharmaceutica, N.V., priority 1993, dated 1997).

Counter-ions that a name gives are not always drawn.

This test deals with basilar arteries. Put plainly: Constriction of isolated basilar artery segments of pigs (serotonin-like response, % of response to serotonin). As to conditions: Sus scrofa; constrictive response expressed as percentage of previous response to serotonin (3×10^-7 M); Krebs-Henseleit solution, 37° C.; read-out: IC50 (the source's name). The source says: The compounds of formula (I), the pharmaceutically acceptable acid-additionsalts and stereochemically isomeric forms thereof have interesting pharmacological properties: they show 5HT1-like agonistic activity. The compounds of the present invention have a remarkable vasoconstrictor activity. They are useful to prevent and treat conditions which are related to vasodilatation. For instance, they are useful in the treatment of conditions characterized by or associated with cephalic pain, e.g. cluster headache and headache associated with vascular disorders, especially migraine. These compounds are also useful in the treatment of venous insufficiency and in the treatment of conditions associated with hypotension. The vasoconstrictor activity of the compounds of formula (I) can be determined using an in vitro-test as is described in "Instantaneous changes of alpha-adrenoreceptor affinity caused by moderate cooling in canine cutaneous veins" in the American Journal of Physiology 234(4), H330-H337, 1978; or in the test described in the pharmacological example, wherein the serotonin-like response of the compounds of the present invention was tested on the basilar arteries of pigs.
Segments of basilar arteries taken from pigs (anaesthetised with sodium pentobarbital) were mounted for recording of isometric tension in organ baths. The preparations were bathed in Krebs--Henseleit solution. The solution was kept at 37° C. and gassed with a mixture of 95% O2 -5% CO2. The preparations were stretched until a stable basal tension of 2 grams was obtained.
The preparations were made to constrict with serotonin (3×10^-7 M). The response to the addition of serotonin was measured and subsequently the serotonin was washed away. This procedure was repeated until stable responses were obtained. Subsequently the test compound was administered to the organ bath and the constriction of the preparation was measured. This constrictive response was expressed as a percentage of the response to serotonin as measured previously.
On to `c1cnc(NCCCNCC2CCc3cccnc3O2)nc1` (racemic) [Co. No. 1, (±)-N-[(3,4-dihydro-2H-pyrano[2,3-b]-pyridin-2-yl)methyl]-N'-2-pyrimidinyl-1,3-propanediamine trihydrochloride. 2-propanolate(1:1). monohydrate], for which the EC50 turned out to be 71 nM.
Then `c1cnc2c(c1)CCC(CNCCCNC1=NCCCN1)O2` (racemic) [Co. No. 2, N-[(3,4-dihydro-2H-pyrano[2,3-b]pyridin-2-yl)methyl]-N'-(1,4,5,6-tetrahydro-2-pyrimidinyl)-1,3-propanediamine dihydrochloride. 2-propanolate (2:1). monohydrate], with 130 nM; and `[O-][n+]1cccc2c1OC(CNCCCNc1ncccn1)CC2` (racemic) [Co. No. 3, (±)-N-(3,4-dihydro-2H-pyrano[2,3-b]pyridon-2-yl)methyl]-N'-2-pyrimidinyl-1,3-propanediamine, N-oxide ethanedioate (2:1). monohydrate], with 340 nM.
Then `CSc1nccc(NCCCNCC2CCc3cccnc3O2)n1` (racemic) [Co. No. 5], with 260 nM; and `c1ccc(NCCCNCC2CCc3cccnc3O2)nc1` (racemic) [Co. No. 6], with 120 nM.
